In US20040248223A1, “Reduction of interfering peroxidase activity in peroxidase based detection methods” (IDEXX Laboratories, Inc., priority 2003, published 2004):
Read-outs that look alike come from different tables or passages of the source.

Assays:
[1] = target: EPO (Homo sapiens, UniProt P11678)
Procedure: (§1) Assays were run to determine the selectivity of azide for interference from EPO, MPO and hemoglobin. Activities were measured in solution using a peroxidase substrate consisting of, per liter, 1.4 mmol of TMB, 0.3 mmol of hydrogen peroxide, 20 mmol of sodium chloride, 30 mg of Triton X-100, and 100 g of sucrose. HRP was a conjugate of chicken antibody (used in Example 1). MPO and EPO were essentially homogeneous commercial preparations isolated from human leukocytes. Hemoglobin (Hgb) was obtained as a Triton X-100 lysate of feline erythrocytes.

[2] = target: T1, HRP (Armoracia rusticana, UniProt P00433)
T1 sequence (P00433 31-338): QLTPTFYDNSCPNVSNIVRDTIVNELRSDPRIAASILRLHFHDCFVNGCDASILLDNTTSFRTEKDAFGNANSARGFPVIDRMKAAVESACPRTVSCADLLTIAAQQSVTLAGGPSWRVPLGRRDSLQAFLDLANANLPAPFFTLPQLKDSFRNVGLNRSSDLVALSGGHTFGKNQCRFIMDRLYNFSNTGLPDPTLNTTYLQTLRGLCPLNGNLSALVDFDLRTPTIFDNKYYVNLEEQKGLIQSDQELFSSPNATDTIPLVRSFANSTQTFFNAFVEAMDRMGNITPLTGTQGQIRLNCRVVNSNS
Procedure: as §1

[3] = target: Hemoglobin (Hgb) (Felis catus, UniProt P07405+P07412)
Sequence of Hemoglobin (Hgb) (P07405 whole entry): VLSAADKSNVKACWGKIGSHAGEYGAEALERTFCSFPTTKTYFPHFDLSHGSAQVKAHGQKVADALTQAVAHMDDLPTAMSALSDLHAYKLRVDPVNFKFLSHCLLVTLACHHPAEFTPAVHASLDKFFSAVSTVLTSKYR
Sequence of Hemoglobin (Hgb) (P07412 whole entry): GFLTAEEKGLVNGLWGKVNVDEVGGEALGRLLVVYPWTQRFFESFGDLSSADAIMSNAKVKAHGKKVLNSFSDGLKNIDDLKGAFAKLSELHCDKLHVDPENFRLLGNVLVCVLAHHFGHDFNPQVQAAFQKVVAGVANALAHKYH
Procedure: as §1

[4] = target: MPO (Homo sapiens, UniProt P05164)
Sequence of MPO (P05164 279-745 limits assumed): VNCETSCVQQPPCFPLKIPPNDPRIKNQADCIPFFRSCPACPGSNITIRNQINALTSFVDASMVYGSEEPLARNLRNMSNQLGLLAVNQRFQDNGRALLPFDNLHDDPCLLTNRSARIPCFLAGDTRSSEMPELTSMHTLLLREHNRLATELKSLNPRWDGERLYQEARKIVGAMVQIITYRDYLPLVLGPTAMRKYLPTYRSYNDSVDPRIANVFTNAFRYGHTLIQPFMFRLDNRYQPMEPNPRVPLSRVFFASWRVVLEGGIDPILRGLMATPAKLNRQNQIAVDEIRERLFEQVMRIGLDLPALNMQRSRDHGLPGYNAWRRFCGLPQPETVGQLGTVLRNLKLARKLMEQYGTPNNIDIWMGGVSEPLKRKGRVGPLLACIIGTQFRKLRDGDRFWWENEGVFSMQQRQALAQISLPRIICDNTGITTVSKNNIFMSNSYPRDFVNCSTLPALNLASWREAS
Sequence of MPO (P05164 165-273 limits assumed): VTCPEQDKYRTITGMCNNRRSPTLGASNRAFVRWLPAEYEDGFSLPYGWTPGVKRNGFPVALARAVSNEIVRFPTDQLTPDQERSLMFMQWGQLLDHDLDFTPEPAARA
Procedure: as §1

[5] = test system: endogenous canine peroxidase; settings: 100 μmol per liter sodium azide, whole canine blood, 10 minutes
Procedure: (§2) SLF5 glass fiber discs, 6.4 mm diameter (Whatman, Inc.) were sensitized with 13 μL of 1 mg/mL rabbit anti-heartworm antibody containing 0.7% sodium bicarbonate, 2% sucrose, and 30 μg/mL FDC Blue 1 dye. Heartworm antibody can be produced from heartworm antigen prepared by disrupting a parasitic worm in an aqueous buffer solution, centrifuging to remove insoluble and particulate components, adding of trichloroacetic acid to a concentration of 15% w/v, centrifuging to remove insoluble components, dialyzing against an aqueous buffer solution and lyophilizing. This antigen preparation is used to produce antibodies in mammals using standard methods (see, e.g., Harlow, E. and D. Lane, 1988, “Antibodies: A Laboratory manual”, Cold Spring Harbor Laboratory, Cod Spring Harbor, N.Y., USA, ISBN 0-87969-314-2 pp 92-286).
(§3) The discs were washed with buffer containing, per liter, 25 mmol of 3-(N-morpholino)-2-hydroxypropane sulfonic acid MOPSO, 100 mmol of NaCl, 1 g of Brij® 35 and 1 g of tetrasodium EDTA, pH 7.4. Two 15 μL drops of a mixture of 100 μL of whole canine blood containing 950 eosinophils per μL (normal range: 100-1500 eosinophils per μL), 0.5%-25% v/v of heartworm extract in fetal bovine serum and 25 μL of 100 μg/mL of chicken anti-heartworm HRP-conjugated antibody was added to the glass fiber disc and allowed to incubate for 5 minutes at 23C. The discs were washed with a buffered bland protein solution containing 1% Triton X-100 and transferred to polystyrene microwells.
(§4) A peroxidase substrate containing 100 μmol per liter of sodium azide, was added to the discs and allowed to incubate for 10 minutes, after which time the amount of blue color produced was measured by bichromatic absorbance at 650 nm-562 nm, compensating the background contribution from the glass fiber matrix. Duplicate discs were also processed in an identical manner except these were incubated instead with the peroxidase substrate but lacking in azide.

[6] = target: T1, HRP; settings: for effect on assay sensitivity: both substrates (TMBlue, TMBM); for 50 μM azide (mA) / 100 μM azide (mA) / 500 μM Azide (mA): serum
Procedure: as §2, §3, §4
The TMBlue® substrate was incubated with the glass fiber discs for 3 minutes and TMBM substrate was incubated for 15 minutes until bichromatic measurement at 650 mn-562 nm.

[7] = Procedure: Above pH 6 the activity of some peroxidase substrates declines. […] Incubation times longer than 30 minutes have not been very useful in peroxidase-based analysis due to substrate evaporation and gradual inactivation of peroxidase by peroxide, which occurs naturally after a limited number of catalytic cycles.
[8] = even down to pH 3; cited from earlier work
[9] = TMBM substrate, 15 minutes, heartworm antigen 0%
[10] = TMBM substrate, 15 minutes, heartworm antigen 5%
[11] = TMBM substrate, 15 minutes, heartworm antigen 10%
[12] = TMBM substrate, 15 minutes, heartworm antigen 25%
[13] = TMBM substrate, 15 minutes, heartworm antigen 50%
[14] = TMBM substrate, 15 minutes, heartworm antigen 100%
[15] = TMBlue substrate, 3 minutes, heartworm antigen 0%
[16] = TMBlue substrate, 3 minutes, heartworm antigen 5%
[17] = TMBlue substrate, 3 minutes, heartworm antigen 10%
[18] = TMBlue substrate, 3 minutes, heartworm antigen 25%
[19] = TMBlue substrate, 3 minutes, heartworm antigen 50%
[20] = TMBlue substrate, 3 minutes, heartworm antigen 100%

Sequence of EPO (P11678 251-715 limits assumed): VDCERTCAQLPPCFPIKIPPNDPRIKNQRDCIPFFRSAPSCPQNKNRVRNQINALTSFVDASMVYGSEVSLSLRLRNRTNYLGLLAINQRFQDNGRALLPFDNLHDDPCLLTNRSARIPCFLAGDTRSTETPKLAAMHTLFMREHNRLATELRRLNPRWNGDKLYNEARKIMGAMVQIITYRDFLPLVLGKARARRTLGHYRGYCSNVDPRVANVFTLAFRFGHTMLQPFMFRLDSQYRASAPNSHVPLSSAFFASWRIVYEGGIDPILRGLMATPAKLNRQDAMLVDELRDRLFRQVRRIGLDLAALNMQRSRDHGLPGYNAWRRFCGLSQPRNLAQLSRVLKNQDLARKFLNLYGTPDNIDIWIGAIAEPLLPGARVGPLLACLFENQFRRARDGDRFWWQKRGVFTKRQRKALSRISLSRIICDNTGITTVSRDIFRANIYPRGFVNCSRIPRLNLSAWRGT
Sequence of EPO (P11678 140-250 limits assumed): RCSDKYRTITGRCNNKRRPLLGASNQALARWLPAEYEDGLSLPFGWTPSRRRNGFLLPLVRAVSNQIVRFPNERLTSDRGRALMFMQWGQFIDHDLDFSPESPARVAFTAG

SMILES: [N-]=[N+]=[N-].[Na+] [azide, sodium azide]
- % of control activity (without azide), EPO ([1]; 3 μM azide): 13.4%
- % of control activity (without azide), EPO ([1]; 30 μM azide): 0.7%
- % of control activity (without azide), HRP ([2]; 3 μM azide): 101%
- % of control activity (without azide), HRP ([2]; 30 μM azide): 83.5%
- % of control activity (without azide), Hgb ([3]; 3 μM azide): 99.7%
- % of control activity (without azide), Hgb ([3]; 30 μM azide): 26.4%
- % of control activity (without azide), MPO ([4]; 3 μM azide): 63.1%
- % of control activity (without azide), MPO ([4]; 30 μM azide): 15.5%
- azide added mA650-562 ([5]; antigen 0%): 118 mA
- azide added mA650-562 ([5]; antigen 0.5%): 97 mA
- azide added mA650-562 ([5]; antigen 1%): 123 mA
- azide added mA650-562 ([5]; antigen 2.5%): 147 mA
- azide added mA650-562 ([5]; antigen 5%): 149 mA
- azide added mA650-562 ([5]; antigen 10%): 179 mA
- azide added mA650-562 ([5]; antigen 25%): 305 mA
- effect on assay sensitivity ([6]; 500 μM azide): the decrease in sensitivity is not severe
- 50 μM azide (mA) [6, 9]: 46 mA
- 50 μM azide (mA) [6, 10]: 138 mA
- 50 μM azide (mA) [6, 11]: 196 mA
- 50 μM azide (mA) [6, 12]: 264 mA
- 50 μM azide (mA) [6, 13]: 535 mA
- 50 μM azide (mA) [6, 14]: 776 mA
- 100 μM azide (mA) [6, 9]: 73 mA
- 100 μM azide (mA) [6, 10]: 123 mA
- 100 μM azide (mA) [6, 11]: 197 mA
- 100 μM azide (mA) [6, 12]: 324 mA
- 100 μM azide (mA) [6, 13]: 511 mA
- 100 μM azide (mA) [6, 14]: 800 mA
- 500 μM Azide (mA) ([6]; TMBM substrate, 15 minutes, 500 μM azide, heartworm antigen 0%): 37 mA
- 500 μM Azide (mA) ([6]; TMBM substrate, 15 minutes, 500 μM azide, heartworm antigen 5%): 70 mA
- 500 μM Azide (mA) ([6]; TMBM substrate, 15 minutes, 500 μM azide, heartworm antigen 10%): 112 mA
- 500 μM Azide (mA) ([6]; TMBM substrate, 15 minutes, 500 μM azide, heartworm antigen 25%): 173 mA
- 500 μM Azide (mA) ([6]; TMBM substrate, 15 minutes, 500 μM azide, heartworm antigen 50%): 363 mA
- 500 μM Azide (mA) ([6]; TMBM substrate, 15 minutes, 500 μM azide, heartworm antigen 100%): 491 mA
- 50 μM azide (mA) [6, 15]: 22 mA
- 50 μM azide (mA) [6, 16]: 64 mA
- 50 μM azide (mA) [6, 17]: 119 mA
- 50 μM azide (mA) [6, 18]: 270 mA
- 50 μM azide (mA) [6, 19]: 408 mA
- 50 μM azide (mA) [6, 20]: 646 mA
- 100 μM azide (mA) [6, 15]: 31 mA
- 100 μM azide (mA) [6, 16]: 110 mA
- 100 μM azide (mA) [6, 17]: 150 mA
- 100 μM azide (mA) [6, 18]: 395 mA
- 100 μM azide (mA) [6, 19]: 628 mA
- 100 μM azide (mA) [6, 20]: 1046 mA
- 500 μM Azide (mA) ([6]; TMBlue substrate, 3 minutes, 500 μM azide, heartworm antigen 0%): 21 mA
- 500 μM Azide (mA) ([6]; TMBlue substrate, 3 minutes, 500 μM azide, heartworm antigen 5%): 73 mA
- 500 μM Azide (mA) ([6]; TMBlue substrate, 3 minutes, 500 μM azide, heartworm antigen 10%): 121 mA
- 500 μM Azide (mA) ([6]; TMBlue substrate, 3 minutes, 500 μM azide, heartworm antigen 25%): 265 mA
- 500 μM Azide (mA) ([6]; TMBlue substrate, 3 minutes, 500 μM azide, heartworm antigen 50%): 462 mA
- 500 μM Azide (mA) ([6]; TMBlue substrate, 3 minutes, 500 μM azide, heartworm antigen 100%): 734 mA
- effect on assay sensitivity ([6]; up to 100 μM azide): does not produce a significant diminution of assay sensitivity
- fraction of azide that evaporates ([7]; microwell, 100 μL of 5 mM azide in succinate buffer, below pH 4.5, less than a half hour): One-half to two-thirds
- fraction of azide lost ([7]; microwell, 100 μL of 5 mM azide in succinate buffer, pH 5.0): one-third
- loss of azide ([7]; pH 5.5 and above, over a half hour): no significant loss
- loss of azide from closed containers [8]: no azide is lost
